# Test results published in patent US20240360126A1, “PYRAZOLO[3,4-B]PYRIDINE COMPOUNDS FOR THE TREATMENT OF AUTOIMMUNE DISEASE” (Hoffmann-La Roche Inc., priority 2021, published 2024).
# Experiment: Human microsome stability assay
# Format: in vitro ADME
# Conditions: 1 μM test compound, 0.5 mg/mL liver microsomal protein, 37° C.
# Method: The human microsomal stability assay is used for early assessment of metabolic stability of a test compound in human liver microsomes.
# Human liver microsomes (Cat. NO.: 452117, Corning, USA; Cat. NO.:H2610, Xenotech, USA) were preincubated with test compound for 10 minutes at 37° C. in 100 mM potassium phosphate buffer, pH 7.4. The reactions were initiated by adding NADPH regenerating system.
# The final incubation mixtures contained 1 μM test compound, 0.5 mg/mL liver microsomal protein, 1 mM MgCl2, 1 mM NADP, 1 unit/mL isocitric dehydrogenase and 6 mM isocitric acid in 100 mM potassium phosphate buffer, pH 7.4. After incubation times of 0, 3, 6, 9, 15 and 30 minutes at 37° C., 300 μL of cold acetonitrile (including internal standard) was added to 100 μL incubation mixture to terminate the reaction. Following precipitation and centrifugation, the amount of compound remaining in the samples were determined by LC-MS/MS. Controls of no NADPH regenerating system at zero and 30 minutes were also prepared and analyzed.
row,Clearance of Human microsome,Structure (SMILES)
1,7.8 mL/min/kg,"Cc1cc(N2CC[C@H](c3ccc(N4CC5(CNCCO5)C4)cn3)[C@@H](C)C2)c2cnn(C)c2n1 [Example 38, 2-[6-[(3R,4S)-1-(1,6-dimethylpyrazolo[3,4-b]pyridin-4-yl)-3-methyl-4-piperidyl]-3-pyridyl]-5-oxa-2,8-diazaspiro[3.5]nonane]"
2,9.0 mL/min/kg,"Cc1cc(N2CCC(c3cnc(N4CCNCC4)cc3C)[C@H](C)C2)c2cnn(C)c2n1 (single isomer, unassigned) [Example 20, 1,6-dimethyl-4-[cis-3-methyl-4-(4-methyl-6-piperazin-1-yl-3-pyridyl)-1-piperidyl]pyrazolo[3,4-b]pyridine]"
3,9.3 mL/min/kg,"Cc1cc(N2CCC(c3cnc(N4CCNCC4)cn3)CC2)c2cnn(C)c2n1 [Example 3, 1,6-dimethyl-4-[4-(5-piperazin-1-ylpyrazin-2-yl)-1-piperidyl]pyrazolo[3,4-b]pyridine]"
4,6.5 mL/min/kg,"Cc1cc(N2CC[C@H](c3ccc(N4CC(C)(N)C4)cn3)[C@@H](C)C2)c2cnn(C)c2n1 [Example 43, 1-[6-[(3R,4S)-1-(1,6-dimethylpyrazolo[3,4-b]pyridin-4-yl)-3-methyl-4-piperidyl]-3-pyridyl]-3-methyl-azetidin-3-amine]"
5,9.1 mL/min/kg,"Cc1cc(N2CCNCC2)cnc1C1CCN(c2ccnc3c2cnn3C)CC1 [Example 5, 1-methyl-4-[4-(3-methyl-5-piperazin-1-yl-2-pyridyl)-1-piperidyl]pyrazolo[3,4-b]pyridine]"
6,9.3 mL/min/kg,"Cc1cc(N2CCNCC2)ncc1C1CCN(c2ccnc3c2cnn3C)CC1 [Example 6, 1-methyl-4-[4-(4-methyl-6-piperazin-1-yl-3-pyridyl)-1-piperidyl]pyrazolo[3,4-b]pyridine]"
7,8.2 mL/min/kg,"Cc1cc(N2CCC(c3ccc(N4CCNCC4)cn3)CC2)c2cnn(C)c2n1 [Example 2, 1,6-dimethyl-4-[4-(5-piperazin-1-yl-2-pyridyl)-1-piperidyl]pyrazolo[3,4-b]pyridine]"
8,9.1 mL/min/kg,"Cc1cc(N2CC[C@@H](c3ncc(N4CC5(CNCCO5)C4)cc3C)[C@H](C)C2)c2cnn(C)c2n1 [Example 27, 2-[6-[(3S,4R)-1-(1,6-dimethylpyrazolo[3,4-b]pyridin-4-yl)-3-methyl-4-piperidyl]-5-methyl-3-pyridyl]-5-oxa-2,8-diazaspiro[3.5]nonane]"
9,6.2 mL/min/kg,"Cc1cc(N2CC[C@H](c3ccc(N4CCNCC4)cn3)[C@@H](C)C2)c2cnn(C)c2n1 [Example 35, 1,6-dimethyl-4-[(3R,4S)-3-methyl-4-(5-piperazin-1-yl-2-pyridyl)-1-piperidyl]pyrazolo[3,4-b]pyridine]"
10,6.2 mL/min/kg,"COC[C@H]1CN(c2ccc([C@H]3CCN(c4cc(C)nc5c4cnn5C)C[C@@H]3C)nc2)CCN1 [Example 37, 4-[(3R,4S)-4-[5-[(3R)-3-(methoxymethyl)piperazin-1-yl]-2-pyridyl]-3-methyl-1-piperidyl]-1,6-dimethyl-pyrazolo[3,4-b]pyridine]"
11,6.8 mL/min/kg,"COC[C@H]1CN(c2cnc([C@@H]3CCN(c4cc(C)nc5c4cnn5C)C[C@H]3C)c(C)c2)CCN1 [Example 29, 4-[(3S,4R)-4-[5-[(3R)-3-(methoxymethyl)piperazin-1-yl]-3-methyl-2-pyridyl]-3-methyl-1-piperidyl]-1,6-dimethyl-pyrazolo[3,4-b]pyridine]"
12,6.7 mL/min/kg,"COc1cc(N2CCNCC2)cnc1C1CCN(c2cc(C)nc3c2cnn3C)CC1 [Example 14, 4-[4-(3-methoxy-5-piperazin-1-yl-2-pyridyl)-1-piperidyl]-1,6-dimethyl-pyrazolo[3,4-b]pyridine]"
13,7.2 mL/min/kg,"Cc1cc(N2CC[C@H](c3ccc(N4CC[C@@H](N)[C@H](F)C4)cn3)[C@@H](C)C2)c2cnn(C)c2n1 [Example 41, (3R,4R)-1-[6-[(3R,4S)-1-(1,6-dimethylpyrazolo[3,4-b]pyridin-4-yl)-3-methyl-4-piperidyl]-3-pyridyl]-3-fluoro-piperidin-4-amine]"
14,6.7 mL/min/kg,"CO[C@H]1CN(c2ccc([C@H]3CCN(c4cc(C)nc5c4cnn5C)C[C@@H]3C)nc2)CC[C@@H]1N [Example 39, (3S,4S)-1-[6-[(3R,4S)-1-(1,6-dimethylpyrazolo[3,4-b]pyridin-4-yl)-3-methyl-4-piperidyl]-3-pyridyl]-3-methoxy-piperidin-4-amine]"
15,7.8 mL/min/kg,"Cc1cc(N2CCC(c3cnc(N4CCNCC4)cc3C)[C@H](C)C2)c2cnn(C)c2n1 (single isomer, unassigned) [Example 21, 1,6-dimethyl-4-[trans-3-methyl-4-(4-methyl-6-piperazin-1-yl-3-pyridyl)-1-piperidyl]pyrazolo[3,4-b]pyridine]"
16,9.8 mL/min/kg,"Cc1cc(N2CC[C@@H](c3ccc(N4CCNCC4)cn3)[C@H](C)C2)c2cnn(C)c2n1 [Example 34, 1,6-dimethyl-4-[(3S,4R)-3-methyl-4-(5-piperazin-1-yl-2-pyridyl)-1-piperidyl]pyrazolo[3,4-b]pyridine]"
17,6.2 mL/min/kg,"Cc1cc(N2CC[C@@H](c3ncc(N4C[C@H]5NCCO[C@@H]5C4)cc3C)[C@H](C)C2)c2cnn(C)c2n1 [Example 33, (4aR,7aR)-6-[6-[(3S,4R)-1-(1,6-dimethylpyrazolo[3,4-b]pyridin-4-yl)-3-methyl-4-piperidyl]-5-methyl-3-pyridyl]-3,4,4a,5,7,7a-hexahydro-2H-pyrrolo[3,4-b][1,4]oxazine]"
18,8.8 mL/min/kg,"Cc1cc(N2CC[C@@H](c3ncc(N4CC(C)(N)C4)cc3C)[C@H](C)C2)c2cnn(C)c2n1 [Example 32, 1-[6-[(3S,4R)-1-(1,6-dimethylpyrazolo[3,4-b]pyridin-4-yl)-3-methyl-4-piperidyl]-5-methyl-3-pyridyl]-3-methyl-azetidin-3-amine]"
19,7.2 mL/min/kg,"CCc1cc(N2CCNCC2)cnc1C1CCN(c2cc(C)nc3c2cnn3C)CC1 [Example 13, 4-[4-(3-ethyl-5-piperazin-1-yl-2-pyridyl)-1-piperidyl]-1,6-dimethyl-pyrazolo[3,4-b]pyridine]"
